Key:
Assay type in all cases: in vivo
[1] = system: barnyardgrass (Echinochloa crus-galli); experiment: Test A preemergence soil spray, visual injury rating 0-100; details: 10 days, 0 = no effect, 100 = complete control
Method in brief: (§1)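 Greenhouse test: loam/sand pots received a surfactant-containing formulation, as a preemergence directed soil spray or a postemergence spray on young plants. Injury was judged visually at day 10 relative to untreated controls.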

[2] = system: blackgrass (Alopecurus myosuroides); experiment: as above; details: 10 days, 0 = no effect, 100 = complete control
Method in brief: as §1

corn (Zea mays) [3] = experiment: as above; details: 10 days, 0 = no effect, 100 = complete control
Method in brief: as §1

[4] = system: green foxtail (Setaria viridis); experiment: as above; details: 10 days, 0 = no effect, 100 = complete control
Method in brief: as §1

kochia (Bassia scoparia) [5] = experiment: as above; details: 10 days, 0 = no effect, 100 = complete control
Method in brief: as §1

[6] = system: oat, wild (wild oat, Avena fatua); experiment: as above; details: 10 days, 0 = no effect, 100 = complete control
Method in brief: as §1

[7] = system: palmer (palmer amaranth, palmer pigweed, Amaranthus palmeri); experiment: as above; details: 10 days, 0 = no effect, 100 = complete control
Method in brief: as §1

[8] = system: ragweed (common ragweed, Ambrosia artemisiifolia); experiment: as above; details: 10 days, 0 = no effect, 100 = complete control
Method in brief: as §1

[9] = system: ryegrass, Italian (italian ryegrass, Lolium multiflorum); experiment: as above; details: 10 days, 0 = no effect, 100 = complete control
Method in brief: as §1

soybean (Glycine max) [10] = experiment: as above; details: 10 days, 0 = no effect, 100 = complete control
Method in brief: as §1

[11] = system: wheat (Triticum aestivum); experiment: as above; details: 10 days, 0 = no effect, 100 = complete control
Method in brief: as §1

[12] = system: barnyardgrass (Echinochloa crus-galli); experiment: Test A postemergence application, visual injury rating 0-100; details: Postemergence, 10 days, 0 is no effect, 100 is complete control
Method in brief: as §1

[13] = system: blackgrass (Alopecurus myosuroides); experiment: as above; details: Postemergence, 10 days, 0 is no effect, 100 is complete control
Method in brief: as §1

corn (Zea mays) [14] = experiment: as above; details: Postemergence, 10 days, 0 is no effect, 100 is complete control
Method in brief: as §1

[15] = system: galium (catchweed bedstraw, Galium aparine); experiment: as above; details: Postemergence, 10 days, 0 is no effect, 100 is complete control
Method in brief: as §1

[16] = system: green foxtail (Setaria viridis); experiment: as above; details: Postemergence, 10 days, 0 is no effect, 100 is complete control
Method in brief: as §1

[17] = system: horseweed (Erigeron canadensis); experiment: as above; details: Postemergence, 10 days, 0 is no effect, 100 is complete control
Method in brief: as §1

kochia (Bassia scoparia) [18] = experiment: as above; details: Postemergence, 10 days, 0 is no effect, 100 is complete control
Method in brief: as §1

[19] = system: oat, wild (wild oat, Avena fatua); experiment: as above; details: Postemergence, 10 days, 0 is no effect, 100 is complete control
Method in brief: as §1

[20] = system: palmer (palmer amaranth, palmer pigweed, Amaranthus palmeri); experiment: as above; details: Postemergence, 10 days, 0 is no effect, 100 is complete control
Method in brief: as §1

[21] = system: ragweed (common ragweed, Ambrosia artemisiifolia); experiment: as above; details: Postemergence, 10 days, 0 is no effect, 100 is complete control
Method in brief: as §1

[22] = system: ryegrass, Italian (italian ryegrass, Lolium multiflorum); experiment: as above; details: Postemergence, 10 days, 0 is no effect, 100 is complete control
Method in brief: as §1

soybean (Glycine max) [23] = experiment: as above; details: Postemergence, 10 days, 0 is no effect, 100 is complete control
Method in brief: as §1

[24] = system: wheat (Triticum aestivum); experiment: as above; details: Postemergence, 10 days, 0 is no effect, 100 is complete control
Method in brief: as §1

[25] = system: barnyardgrass (Echinochloa crusgalli); experiment: Test B flooded paddy test, visual plant response rating 0-100; details: 250 g ai/ha, Flood, applied to paddy water, evaluated after 13 days
Method in brief: (§2)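 Visual scores versus untreated controls were recorded 13 days after treatment of greenhouse-held plants. At the 2-leaf stage, pots were flooded 3 cm above the soil surface and compounds added straight to the water.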

[26] = system: ducksalad (Heteranthera limosa); experiment: as above; details: 250 g ai/ha, Flood, applied to paddy water, evaluated after 13 days
Method in brief: as §2

rice (Oryza sativa) = experiment: as above; details: 250 g ai/ha, Flood, applied to paddy water, evaluated after 13 days
Method in brief: as §2

[27] = system: sedge, umbrella (small-flower umbrella sedge, Cyperus difformis); experiment: as above; details: 250 g ai/ha, Flood, applied to paddy water, evaluated after 13 days
Method in brief: as §2

CNC(=O)C1C=CC(NC(=O)C2(C)CN(c3cc(Cl)cc(Cl)c3)C(=O)O2)C1 (stereo not shown) [Compound 47]
Barnyardgrass plant response rating (0 to 100 scale) ([1]; 125 g ai/ha): 40
Barnyardgrass plant response rating (0 to 100 scale) ([1]; 500 g ai/ha): 100
Blackgrass plant response rating (0 to 100 scale) ([2]; 125 g ai/ha): 10
Blackgrass plant response rating (0 to 100 scale) ([2]; 500 g ai/ha): 90
Corn plant response rating (0 to 100 scale) (corn (Zea mays) [3]; 125 g ai/ha): 30
Corn plant response rating (0 to 100 scale) (corn (Zea mays) [3]; 500 g ai/ha): 70
Foxtail, Green plant response rating (0 to 100 scale) ([4]; 125 g ai/ha): 30
Foxtail, Green plant response rating (0 to 100 scale) ([4]; 500 g ai/ha): 100
Kochia plant response rating (0 to 100 scale) (kochia (Bassia scoparia) [5]; 125 g ai/ha): 90
Kochia plant response rating (0 to 100 scale) (kochia (Bassia scoparia) [5]; 500 g ai/ha): 100
Oat, Wild plant response rating (0 to 100 scale) ([6]; 125 g ai/ha): 90
Oat, Wild plant response rating (0 to 100 scale) ([6]; 500 g ai/ha): 90
Amaranth, Palmer plant response rating (0 to 100 scale) ([7]; 125 g ai/ha): 80
Amaranth, Palmer plant response rating (0 to 100 scale) ([7]; 500 g ai/ha): 100
Ragweed plant response rating (0 to 100 scale) ([8]; 125 g ai/ha): 40
Ragweed plant response rating (0 to 100 scale) ([8]; 500 g ai/ha): 60
Ryegrass, Italian plant response rating (0 to 100 scale) ([9]; 125 g ai/ha): 70
Ryegrass, Italian plant response rating (0 to 100 scale) ([9]; 500 g ai/ha): 90
Soybean plant response rating (0 to 100 scale) (soybean (Glycine max) [10]; 125 g ai/ha): 10
Soybean plant response rating (0 to 100 scale) (soybean (Glycine max) [10]; 500 g ai/ha): 0
Wheat plant response rating (0 to 100 scale) ([11]; 125 g ai/ha): 20
Wheat plant response rating (0 to 100 scale) ([11]; 500 g ai/ha): 80
Barnyardgrass plant response rating (0 to 100 scale) ([12]; 125 g ai/ha): 0
Barnyardgrass plant response rating (0 to 100 scale) ([12]; 500 g ai/ha): 80
Blackgrass plant response rating (0 to 100 scale) ([13]; 125 g ai/ha): 20
Blackgrass plant response rating (0 to 100 scale) ([13]; 500 g ai/ha): 70
Corn plant response rating (0 to 100 scale) (corn (Zea mays) [14]; 125 g ai/ha): 80
Corn plant response rating (0 to 100 scale) (corn (Zea mays) [14]; 500 g ai/ha): 90
Galium plant response rating (0 to 100 scale) ([15]; 125 g ai/ha): 80
Galium plant response rating (0 to 100 scale) ([15]; 500 g ai/ha): 80
Foxtail, Green plant response rating (0 to 100 scale) ([16]; 125 g ai/ha): 20
Foxtail, Green plant response rating (0 to 100 scale) ([16]; 500 g ai/ha): 90
Horseweed plant response rating (0 to 100 scale) ([17]; 125 g ai/ha): 50
Horseweed plant response rating (0 to 100 scale) ([17]; 500 g ai/ha): 40
Kochia plant response rating (0 to 100 scale) (kochia (Bassia scoparia) [18]; 125 g ai/ha): 70
Kochia plant response rating (0 to 100 scale) (kochia (Bassia scoparia) [18]; 500 g ai/ha): 80
Oat, Wild plant response rating (0 to 100 scale) ([19]; 125 g ai/ha): 20
Oat, Wild plant response rating (0 to 100 scale) ([19]; 500 g ai/ha): 20
Amaranth, Palmer / Pigweed, Palmer plant response rating (0 to 100 scale) ([20]; 125 g ai/ha): 80
Amaranth, Palmer / Pigweed, Palmer plant response rating (0 to 100 scale) ([20]; 500 g ai/ha): 100
Ragweed plant response rating (0 to 100 scale) ([21]; 125 g ai/ha): 40
Ragweed plant response rating (0 to 100 scale) ([21]; 500 g ai/ha): 50
Ryegrass, Italian plant response rating (0 to 100 scale) ([22]; 125 g ai/ha): 30
Ryegrass, Italian plant response rating (0 to 100 scale) ([22]; 500 g ai/ha): 70
Soybean plant response rating (0 to 100 scale) (soybean (Glycine max) [23]; 125 g ai/ha): 30
Soybean plant response rating (0 to 100 scale) (soybean (Glycine max) [23]; 500 g ai/ha): 50
Wheat plant response rating (0 to 100 scale) ([24]; 125 g ai/ha): 10
Wheat plant response rating (0 to 100 scale) ([24]; 500 g ai/ha): 10
Plant response rating, Barnyardgrass (0 to 100 scale, 0 is no effect and 100 is complete control) [25]: 0
Plant response rating, Ducksalad (0 to 100 scale, 0 is no effect and 100 is complete control) [26]: 30
Plant response rating, Rice (0 to 100 scale, 0 is no effect and 100 is complete control) (rice (Oryza sativa)): 0
Plant response rating, Sedge, Umbrella (0 to 100 scale, 0 is no effect and 100 is complete control) [27]: 0

— patent US20260285850A1, “SUBSTITUTED OXAZOLIDINONES AND IMIDAZOLINONES AS HERBICIDES” (FMC CORPORATION, priority 2023, published 2026)
